Measured values taken from patent US20040077728A1, “Retiferol derivatives and their use in the treatment of skin diseases or conditions associated with photodamage” (priority 2000, published 2004).

Test: Calcium liability (tolerance test in mice)
Format: in vivo
Conditions: mice (25-30 g), daily subcutaneous administration for 4 consecutive days; dose giving zero weight gain over the 5-day treatment period
Description: Calcium Liability (Tolerance Test in Mice):
This test gives a global picture of calcemic liability. Profound changes in calcium homeostasis strongly affect the weight development of the animals. This parameter was used as a primary test for tolerance. Mice (25-30 g body weight) received daily subcutaneous administrations of the vitamin D derivative for 4 consecutive days. Body weight was registered just before and at the end of a 5-day treatment period. The “highest tolerated dose” (HTDsc) in mice is the dose which results in zero weight gain during this treatment period.

SMILES: C=C1/C(=C\C=C2/CCC[C@]3(C)[C@@H]([C@H](C)CCCC(C)(C)O)CC[C@@H]23)C[C@@H](O)C[C@@H]1O [calcitriol]
- HTDs.c. highest tolerated dose without weight loss: 1 µg/kg
